Assay results: patent publication US9611262B2, “Substituted 2-azabicycles and their use as orexin receptor modulators” (JANSSEN PHARMACEUTICA NV, priority 2014, dated 2017)

Legend:
human orexin 2 receptor = human orexin 2 receptor (Homo sapiens (Human), UniProt O43614); assay: Human orexin 2 receptor radioligand binding ([3H]-EMPA competition); conditions: HEK293 stably expressing human orexin 2 receptor; 2 nM [3H]-EMPA; averages of 2-20 runs; read-out: hOX2 Ki
Summary of the method: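 Membranes-free whole HEK293 cells stably expressing human OX2 receptor incubated with [3H]-EMPA and compound (7 concentrations, 0.1 nM–10 μM, ≤0.1% DMSO) for 60 min at room temperature; nonspecific binding with 10 μM almorexant. Filtration and scintillation counting; one-site IC50 converted to Ki using predetermined Kd, triplicates averaged over 2-20 runs.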

rat orexin 1 receptor = rat orexin 1 receptor (Rattus norvegicus, UniProt P56718); assay: Rat orexin 1 receptor radioligand binding (competitive); conditions: HEK293 cells stably expressing rat orexin 1 receptor; 4 nM radioligand; averages of 2-20 runs; read-out: rOX1 Ki
Experimental: The in vitro affinity of the compounds of the invention for the rat/human orexin 1 and human orexin 2 receptors was determined by competitive radioligand binding using [^3H](1-(5-(2-fluoro-phenyl)-2-methyl-thiazol-4-yl)-1-((S)-2-(5-phenyl-(1,3,4)oxadiazol-2-ylmethyl)-pyrrolidin-1-yl)-methanone) (Langmead et al., 2004) and [^3H]EMPA (n-ethyl-2[96-methoxy-pyridin-3-yl)-(toluene-2-sulfonyl)-amino]-N-pyridin-3-ylmethyl acetamide), respectively (Langmead et al., 2004, British Journal of Pharmacology 141:340-346; Malherbe et al., 2004, British Journal of Pharmacology 156:1326-41).
Data are analyzed using pc-Sandy macro and graphed on Graphpad Prism 5. For analysis, each concentration point is averaged from triplicate values and the averaged values are plotted on Graphpad Prism. The IC50 was determined by applying the following equation (GraphPad Prism 5.0, San Diego) for one site competition where X=log (concentration) and Y=specific binding. Top denotes the total [^3H]— (1-(5-(2-fluoro-phenyl)-2-methyl-thiazol-4-yl)-1-((S)-2-(5-phenyl-(1,3,4)oxadiazol-2-ylmethyl)-pyrrolidin-1-yl)-methanone) binding, bottom denotes the nonspecific [^3H]— (1-(5-(2-fluoro-phenyl)-2-methyl-thiazol-4-yl)-1-((S)-2-(5-phenyl-(1,3,4)oxadiazol-2-ylmethyl)-pyrrolidin-1-yl)-methanone) binding. Graphpad Prism calculates Ki value from IC50 and the pre-determined Kd values for [^3H]— (1-(5-(2-fluoro-phenyl)-2-methyl-thiazol-4-yl)-1-((S)-2-(5-phenyl-(1,3,4)oxadiazol-2-ylmethyl)-pyrrolidin-1-yl)-methanone) and [^3H]-EMPA. The Ki for each compound is then uploaded into 3DX. Each run comprises individual compounds in triplicate. The data in Table 1 and Table 2 represent averages from between 2-20 runs
Rat and Human Orexin 1 Receptor Radioligand Binding Studies
Human Embryonic Kidney 293 cells (HEK293) stably expressing rat orexin 1 receptor (Genebank accession number NM_001525) or Chinese ovary cells (CHO) stably expressing human orexin 1 receptor (Genebank accession number […]) were grown to confluency in DMEM (Hyclone, cat # SH30022), 10% FBS, 1× Pen/Strep, 1× sodium pyruvate, 10 mM HEPES, 600 μg/mL G418 and DMEM/F12 (Gibco, Cat #11039), 10% FBS, 1× Pen/Strep, 600 μg/mL G418 media, respectively on 150 cm^2 tissue culture plates, washed with 5 mM EDTA in PBS (HyClone Dulbecco's Phosphate Buffered Saline 1× with Calcium and Magnesium, Cat # SH30264.01, hereafter referred to simply as PBS) and scraped into 50 ml tubes. After centrifugation (2K×G, 5 min at 4° C.), the supernatant was aspirated and the pellets frozen and stored at −80° C. Cells were resuspended in PBS in the presence of 1 tablet of protease inhibitor cocktail (Roche, Cat. #11836145001) per 50 mL. […] Competition binding experiments in 96 well polypropylene plates were performed using [^3H]— (1-(5-(2-fluoro-phenyl)-2-methyl-thiazol-4-yl)-1-((S)-2-(5-phenyl-(1,3,4)oxadiazol-2-ylmethyl)-pyrrolidin-1-yl)-methanone) (Moraveck Corporation, specific activity=35.3 Ci/mmol), diluted to a 10 nM concentration in PBS (4 nM final). Compounds were solubilized in 100% DMSO (Acros Organics, Cat. #61042-1000) and tested over a range of 7 concentrations (from 0.1 nM to 10 μM). The final concentration of DMSO in the reactions is equal to or less than 0.1%. Total and nonspecific binding was determined in the absence and presence of 10 μM almorexant. The total volume of each reaction is 200 μL (20 μL of diluted compounds, 80 μL of [^3H]— (1-(5-(2-fluoro-phenyl)-2-methyl-thiazol-4-yl)-1-((S)-2-(5-phenyl-(1,3,4)oxadiazol-2-ylmethyl)-pyrrolidin-1-yl)-methanone) diluted in PBS and 100 μL of the cell suspension). Reactions were run for 60 min at room temperature and terminated by filtration through GF/C filter plates (PerkinElmer, Cat. #6005174) presoaked in 0.3% polyethylenimine using the cell harvester (PerkinElmer Filtermate). The plates were washed 3 times by aspirating 30 ml PBS through the plates. Plates were dried in 55° C. oven for 60 min, scintillation fluid was added, and the radioactivity was counted on a Topcount (Packard). […]

Sequence of human orexin 2 receptor (O43614 whole entry): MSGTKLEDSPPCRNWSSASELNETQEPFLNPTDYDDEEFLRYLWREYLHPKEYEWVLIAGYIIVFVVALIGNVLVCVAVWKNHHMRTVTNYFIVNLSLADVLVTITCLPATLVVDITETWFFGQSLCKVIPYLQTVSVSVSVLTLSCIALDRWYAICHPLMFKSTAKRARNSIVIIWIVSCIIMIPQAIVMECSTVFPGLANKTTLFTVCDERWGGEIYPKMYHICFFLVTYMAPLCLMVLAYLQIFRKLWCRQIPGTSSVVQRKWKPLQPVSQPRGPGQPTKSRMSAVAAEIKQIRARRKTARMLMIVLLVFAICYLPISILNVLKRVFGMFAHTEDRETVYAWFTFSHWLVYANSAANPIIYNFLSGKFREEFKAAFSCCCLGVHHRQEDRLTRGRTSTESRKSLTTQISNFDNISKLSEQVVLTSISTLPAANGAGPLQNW

With `C[C@@H]1[C@H]2C[C@@H](Oc3ccc(C(F)(F)F)cn3)[C@H](C2)N1C(=O)c1ccccc1-c1ncc(OCCF)cn1` [Example 169, [2-[5-(2-fluoroethoxy)pyrimidin-2-yl]phenyl]-[(1R,2R,4S,5R)-2-methyl-5-[[5-(trifluoromethyl)-2-pyridyl]oxy]-3-azabicyclo[2.2.1]heptan-3-yl]methanone] the Ki (human orexin 2 receptor) was 3.94 µM and the Ki (rat orexin 1 receptor) was 0.052 µM.
`C[C@@H]1[C@H]2C[C@@H](Oc3ccc(C(F)(F)F)cn3)[C@H](C2)N1C(=O)c1ccccc1-c1cnc(F)cn1` [Example 170, [2-(5-fluoropyrazin-2-yl)phenyl]-[(1R,2R,4S,5R)-2-methyl-5-[[5-(trifluoromethyl)-2-pyridyl]oxy]-3-azabicyclo[2.2.1]heptan-3-yl]methanone] gave a Ki (human orexin 2 receptor) of 1.6 µM and a Ki (rat orexin 1 receptor) of 0.009 µM.
`O=C(c1c(F)cccc1-n1nccn1)N1[C@H](CO)[C@@H]2CC[C@H]1[C@H](Oc1ccc(C(F)(F)F)cn1)C2` [Example 177, [2-fluoro-6-(triazol-2-yl)phenyl]-[(1R,2S,4S,5R)-2-(hydroxymethyl)-5-[[5-(trifluoromethyl)-2-pyridyl]oxy]-3-azabicyclo[2.2.2]octan-3-yl]methanone] showed a Ki (human orexin 2 receptor) of over 10 µM and a Ki (rat orexin 1 receptor) of 1.15 µM.
Molecule `O=C(c1cc(F)ccc1-c1ncc(F)cn1)N1[C@H](CO)[C@@H]2CC[C@H]1[C@H](Oc1ccc(C(F)(F)F)cn1)C2` [Example 178, [5-fluoro-2-(5-fluoropyrimidin-2-yl)phenyl]-[(1R,2S,4S,5R)-2-(hydroxymethyl)-5-[[5-(trifluoromethyl)-2-pyridyl]oxy]-3-azabicyclo[2.2.2]octan-3-yl]methanone] has a Ki (human orexin 2 receptor) of over 10 µM and a Ki (rat orexin 1 receptor) of 1.1 µM.
Molecule `COC[C@@H]1[C@@H]2CC[C@@H]([C@H](Oc3ccc(C(F)(F)F)cn3)C2)N1C(=O)c1nc(C)ccc1-n1nccn1` [Example 179, [(1R,2S,4S,5R)-2-(methoxymethyl)-5-[[5-(trifluoromethyl)-2-pyridyl]oxy]-3-azabicyclo[2.2.2]octan-3-yl]-[6-methyl-3-(triazol-2-yl)-2-pyridyl]methanone] has a Ki (human orexin 2 receptor) of 2.1 µM and a Ki (rat orexin 1 receptor) of 0.015 µM.
For `COC[C@@H]1[C@@H]2CC[C@@H]([C@H](Oc3ccc(C(F)(F)F)cn3)C2)N1C(=O)c1nc(C)ccc1-c1ncccn1` [Example 180, [(1R,2S,4S,5R)-2-(methoxymethyl)-5-[[5-(trifluoromethyl)-2-pyridyl]oxy]-3-azabicyclo[2.2.2]octan-3-yl]-(6-methyl-3-pyrimidin-2-yl-2-pyridyl)methanone], the Ki (human orexin 2 receptor) was 1.7 µM and the Ki (rat orexin 1 receptor) was 0.032 µM.
Work on `COC[C@@H]1[C@@H]2CC[C@@H]([C@H](Oc3ccc(C(F)(F)F)cn3)C2)N1C(=O)c1ccccc1-c1ncccn1` [Example 181, [(1R,2S,4S,5R)-2-(methoxymethyl)-5-[[5-(trifluoromethyl)-2-pyridyl]oxy]-3-azabicyclo[2.2.2]octan-3-yl]-(2-pyrimidin-2-ylphenyl)methanone] yielded a Ki (human orexin 2 receptor) of over 10 µM and a Ki (rat orexin 1 receptor) of 0.087 µM.
`Cc1ccc(-c2ncccn2)c(C(=O)N2[C@H](C)[C@H]3C[C@@H](Oc4ccc(C(F)F)cn4)[C@@H]2C3)n1` [Example 182, [(1R,2R,4S,5R)-5-[[5-(difluoromethyl)-2-pyridyl]oxy]-2-methyl-3-azabicyclo[2.2.1]heptan-3-yl]-(6-methyl-3-pyrimidin-2-yl-2-pyridyl)methanone] showed a Ki (human orexin 2 receptor) of 0.095 µM and a Ki (rat orexin 1 receptor) of 0.011 µM.
Work on `CCOC(=O)[C@@H]1[C@H]2C[C@@H](Oc3ccc(C(F)(F)F)cn3)[C@H](C2)N1C(=O)c1nc(C)ccc1-n1nccn1` [Example 192, ethyl (1R,2S,4S,5R)-3-[6-methyl-3-(triazol-2-yl)pyridine-2-carbonyl]-5-[[5-(trifluoromethyl)-2-pyridyl]oxy]-3-azabicyclo[2.2.1]heptane-2-carboxylate] yielded a Ki (human orexin 2 receptor) of 0.795 µM and a Ki (rat orexin 1 receptor) of 0.053 µM.
`C[C@@H]1[C@H]2C[C@@H](Oc3ccc(C(F)(F)F)cn3)[C@H](C2)N1C(=O)c1ccc(OCCF)cc1-n1nccn1` [Example 202, [4-(2-fluoroethoxy)-2-(triazol-2-yl)phenyl]-[(1R,2R,4S,5R)-2-methyl-5-[[5-(trifluoromethyl)-2-pyridyl]oxy]-3-azabicyclo[2.2.1]heptan-3-yl]methanone] was tested, and the Ki (human orexin 2 receptor) was over 10 µM and the Ki (rat orexin 1 receptor) was 0.196 µM.
